Several values for one entry are separate records, joined by “and”; a condition that tells them apart may be missing. Equal entries are not always repeated.
Assays:
[1] = test system: mouse Mfsd2a; assay: Cell-based free fatty acid transport/uptake in Mfsd2a expressing HEK293 cells (mass spectrometry, TLC; Table 1); details: for Amount of each lipid species normalized to internal standard, mol percent in total phospholipid analysed / Amount of lipid species, mol percent in total phospholipid analysed / Amount of each lipid species, mol percent in total phospholipid analysed: MS, replicate columns; for Amount of lipid species, mol percent in total phospholipid analysed: 100 uM Oleic fatty acid/BSA complex overnight; for Amount of each lipid species, mol percent in total phospholipid analysed: mock HEK293 cells incubated with 100 uM Arachidonic fatty acid/BSA complex overnight
Description: (§1) FIG. 12. […] Std: free [^14C]-DHA. b. TLC analysis of phospholipids and neutral lipids of HEK293 cells transfected with mouse Mfsd2a and mutants after overnight incubation with 100 μM [^14C]-oleate. TLC protocol used was described in Methods. PC: phosphatidylcholine, PE: phosphatidylethanolamine, TAG: triglyceride, CE: cholesteryl ester.
(§2) For tissue lipid analysis, brain, liver, and heart of female WT and KO mice with age of 7-8 weeks born to HET mothers, and brains from e18.5 embryos were collected and immediately frozen with liquid nitrogen until extraction. Lipid extraction was followed by chloroform/methanol method. For cell-based free fatty acid transport, lipids from HEK293 cells expressing mouse Mfsd2a and mock controls after overnight treatment with 100 μM docosahexaenoic, arachidonic, eicosapentaenoic, alpha-linolenic, linoleic, oleic, palmitic acids in BSA complex were extracted using HIP buffer (hexane:iso-propanol 3:2, per volume) and dried under N2 gas. Phospholipid species were measured by high performance liquid chromatography (HPLC) 1100 system (Agilent) coupled with an Triple Quadrupole/Ion Trap mass spectrometer (4000Qtrap, Applied Biosystem). Levels of individual phospholipid species were analyzed as described previously and quantified using spiked internal standards that includes PC-14:0/14:0, PE-14:0/14:0, PS-14:0/14:0 (Avanti Polar Lipids, Alabaster, Ala., USA), and dioctanoyl PI (Echelon Biosciences, Inc., Salt Lake City, Utah, USA).

[2] = target: T1, mouse Mfsd2a (Mus musculus, UniProt Q9DA75); assay: as above; details: for Amount of lipid species, mol percent in total phospholipid analysed / Amount of each lipid species normalized to internal standard, mol percent in total phospholipid analysed: Mfsd2a expressing HEK293 cells; for Amount of lipid species, mol percent in total phospholipid analysed / Amount of each lipid species normalized to internal standard, mol percent in total phospholipid analysed / Amount of each lipid species, mol percent in total phospholipid analysed: replicate columns; for Amount of each lipid species, mol percent in total phospholipid analysed: Mfsd2a expressing HEK293 cells incubated with 100 uM Arachidonic fatty acid/BSA complex overnight
T1 construct: expressed in transfected cells; host or cells: HEK293
T1 sequence (Q9DA75 1-534): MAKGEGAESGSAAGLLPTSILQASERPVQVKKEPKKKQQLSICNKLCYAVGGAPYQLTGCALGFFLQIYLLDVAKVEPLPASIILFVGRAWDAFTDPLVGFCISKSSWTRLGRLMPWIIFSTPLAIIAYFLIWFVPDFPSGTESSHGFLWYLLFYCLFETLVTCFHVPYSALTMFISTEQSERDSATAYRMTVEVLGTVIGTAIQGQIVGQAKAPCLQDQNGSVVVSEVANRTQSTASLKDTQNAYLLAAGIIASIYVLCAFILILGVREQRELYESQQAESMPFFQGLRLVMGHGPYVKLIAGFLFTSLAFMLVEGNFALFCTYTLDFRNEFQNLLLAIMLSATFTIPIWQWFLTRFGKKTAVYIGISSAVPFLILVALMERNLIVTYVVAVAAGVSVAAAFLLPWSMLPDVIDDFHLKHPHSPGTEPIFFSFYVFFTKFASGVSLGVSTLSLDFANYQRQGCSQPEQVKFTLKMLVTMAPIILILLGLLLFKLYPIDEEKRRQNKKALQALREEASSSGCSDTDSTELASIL
Description: as §1, §2

[3] = mock HEK293 cells, 100 uM Docosahexaenoic acid/BSA complex overnight
[4] = mock HEK293 cells, 100 uM Eicosapentaenoic acid/BSA complex overnight
[5] = 100 uM Alpha-linolenic fatty acid/BSA complex overnight
[6] = 100 uM Linoleic fatty acid/BSA complex overnight
[7] = 100 uM Docosahexaenoic acid/BSA complex overnight, MS
[8] = 100 uM Eicosapentaenoic acid/BSA complex overnight, MS
[9] = 100 uM Oleic fatty acid/BSA complex overnight, MS
[10] = mock HEK293 cells, 100 uM fatty acid/BSA overnight
[11] = Mfsd2a HEK293 cells, 100 uM fatty acid/BSA overnight

CCCCCCCCCCCCCCCC/C=C\OC[C@@H](O)COP(=O)(O)OCCN [Lyso PE18:0p]
Amount of each lipid species normalized to internal standard, mol percent in total phospholipid analysed [1, 3]: 0.3791 mol percent and 0.5478 mol percent and 0.5875 mol percent
Amount of each lipid species normalized to internal standard, mol percent in total phospholipid analysed [1, 4]: 0.7711 mol percent and 0.3952 mol percent and 0.4625 mol percent
Amount of lipid species, mol percent in total phospholipid analysed ([1]; mock HEK293 cells): 0.336 mol percent and 0.5628 mol percent and 0.5097 mol percent
Amount of lipid species, mol percent in total phospholipid analysed [2, 5]: 0.5329 mol percent and 0.4653 mol percent and 0.37 mol percent and 0.5715 mol percent
Amount of lipid species, mol percent in total phospholipid analysed [2, 6]: 0.3438 mol percent and 0.3054 mol percent and 0.2525 mol percent and 0.1986 mol percent
Amount of each lipid species normalized to internal standard, mol percent in total phospholipid analysed [2, 7]: 0.3998 mol percent and 0.8078 mol percent and 0.4971 mol percent and 0.5526 mol percent
Amount of each lipid species normalized to internal standard, mol percent in total phospholipid analysed [2, 8]: 0.4834 mol percent and 0.7431 mol percent and 0.4828 mol percent and 0.4728 mol percent
Amount of lipid species, mol percent in total phospholipid analysed [2, 9]: 0.4754 mol percent and 0.4091 mol percent and 0.4604 mol percent and 0.341 mol percent

CCCCCCCCCCCCCCCC(=O)OC[C@@H](O)COP(=O)([O-])OCC[N+](C)(C)C [LysoPC16:0]
Amount of each lipid species, mol percent in total phospholipid analysed [1]: 0.02322 mol percent and 0.02517 mol percent and 0.02807 mol percent
Amount of each lipid species normalized to internal standard, mol percent in total phospholipid analysed [1, 3]: 0.03115 mol percent and 0.02846 mol percent and 0.03055 mol percent
Amount of each lipid species normalized to internal standard, mol percent in total phospholipid analysed [1, 4]: 0.02508 mol percent and 0.02349 mol percent and 0.02482 mol percent
Amount of lipid species, mol percent in total phospholipid analysed ([1]; mock HEK293 cells): 0.01539 mol percent and 0.01577 mol percent and 0.0163 mol percent
Amount of each lipid species, mol percent in total phospholipid analysed ([2]; MS): 0.02415 mol percent and 0.0241 mol percent and 0.02855 mol percent and 0.02172 mol percent
Amount of lipid species, mol percent in total phospholipid analysed [2, 5]: 0.02586 mol percent and 0.02533 mol percent and 0.02841 mol percent and 0.02293 mol percent
Amount of lipid species, mol percent in total phospholipid analysed [2, 6]: 0.02176 mol percent and 0.01959 mol percent and 0.02134 mol percent and 0.02259 mol percent
Amount of each lipid species normalized to internal standard, mol percent in total phospholipid analysed [2, 7]: 0.03726 mol percent and 0.03481 mol percent and 0.03081 mol percent and 0.02684 mol percent
Amount of each lipid species normalized to internal standard, mol percent in total phospholipid analysed [2, 8]: 0.02694 mol percent and 0.02534 mol percent and 0.02456 mol percent and 0.02331 mol percent
Amount of lipid species, mol percent in total phospholipid analysed [2, 9]: 0.01777 mol percent and 0.01495 mol percent and 0.01595 mol percent and 0.01964 mol percent

CCCCCCCC/C=C\CCCCCCCC(=O)O [Oleic]
% DHA in PS [1, 10]: 0.107% and 0.1103% and 0.1249%
PS(sum) in total phospholipid [1, 10]: 2.685 mol percent and 3.082 mol percent and 2.902 mol percent
PS:36:1 in total phospholipid [1, 10]: 1.21 mol percent and 1.398 mol percent and 1.339 mol percent
PS:36:2 in total phospholipid [1, 10]: 0.4461 mol percent and 0.5356 mol percent and 0.4546 mol percent
PS:36:3 in total phospholipid [1, 10]: 0.0148 mol percent and 0.01325 mol percent and 0.01917 mol percent
PS:38:2 in total phospholipid [1, 10]: 0.2083 mol percent and 0.235 mol percent and 0.2311 mol percent
PS:38:3 in total phospholipid [1, 10]: 0.1326 mol percent and 0.1657 mol percent and 0.1369 mol percent
PS:38:4 in total phospholipid [1, 10]: 0.07625 mol percent and 0.06869 mol percent and 0.07723 mol percent
PS:38:5 in total phospholipid [1, 10]: 0.01081 mol percent and 0.01386 mol percent and 0.0115 mol percent
PS:40:4 in total phospholipid [1, 10]: 0.09048 mol percent and 0.1018 mol percent and 0.09531 mol percent
PS:40:5 in total phospholipid [1, 10]: 0.06829 mol percent and 0.04459 mol percent and 0.0619 mol percent
PS:40:6 in total phospholipid [1, 10]: 0.09845 mol percent and 0.1006 mol percent and 0.1134 mol percent
PS:40:7 in total phospholipid [1, 10]: 0.008536 mol percent and 0.00964 mol percent and 0.0115 mol percent
% DHA in PS [2, 11]: 0.1056% and 0.1088% and 0.1312% and 0.1092%
PS(sum) in total phospholipid [2, 11]: 2.787 mol percent and 2.992 mol percent and 3.252 mol percent and 2.587 mol percent
PS:36:1 in total phospholipid [2, 11]: 1.289 mol percent and 1.358 mol percent and 1.479 mol percent and 1.19 mol percent
PS:36:2 in total phospholipid [2, 11]: 0.4671 mol percent and 0.4839 mol percent and 0.5719 mol percent and 0.4252 mol percent
PS:36:3 in total phospholipid [2, 11]: 0.0188 mol percent and 0.02264 mol percent and 0.01888 mol percent and 0.01251 mol percent
PS:36:4 in total phospholipid [2, 11]: 0.003419 mol percent and 0.003995 mol percent and 0.004969 mol percent and 0.003335 mol percent
PS:38:2 in total phospholipid [2, 11]: 0.2325 mol percent and 0.2459 mol percent and 0.2529 mol percent and 0.1984 mol percent
PS:38:3 in total phospholipid [2, 11]: 0.1257 mol percent and 0.1554 mol percent and 0.1491 mol percent and 0.1276 mol percent
PS:38:4 in total phospholipid [2, 11]: 0.06539 mol percent and 0.08301 mol percent and 0.08249 mol percent and 0.07253 mol percent
PS:38:5 in total phospholipid [2, 11]: 0.008121 mol percent and 0.01199 mol percent and 0.01093 mol percent and 0.01084 mol percent
PS:40:4 in total phospholipid [2, 11]: 0.09916 mol percent and 0.08523 mol percent and 0.1014 mol percent and 0.07753 mol percent
PS:40:5 in total phospholipid [2, 11]: 0.05001 mol percent and 0.05638 mol percent and 0.05863 mol percent and 0.05419 mol percent
PS:40:6 in total phospholipid [2, 11]: 0.09445 mol percent and 0.09677 mol percent and 0.1222 mol percent and 0.0942 mol percent
PS:40:7 in total phospholipid [2, 11]: 0.01111 mol percent and 0.01199 mol percent and 0.008944 mol percent and 0.01501 mol percent

CCCCCCCCCCCCCCCCCC(=O)OC[C@@H](O)COP(=O)([O-])OCC[N+](C)(C)C [LysoPC18:0]
Amount of each lipid species, mol percent in total phospholipid analysed [1]: 0.006849 mol percent and 0.006628 mol percent and 0.006426 mol percent
Amount of each lipid species normalized to internal standard, mol percent in total phospholipid analysed [1, 3]: 0.008486 mol percent and 0.008947 mol percent and 0.009444 mol percent
Amount of each lipid species normalized to internal standard, mol percent in total phospholipid analysed [1, 4]: 0.006911 mol percent and 0.007615 mol percent and 0.006374 mol percent
Amount of lipid species, mol percent in total phospholipid analysed ([1]; mock HEK293 cells): 0.005105 mol percent and 0.004638 mol percent and 0.005658 mol percent
Amount of each lipid species, mol percent in total phospholipid analysed ([2]; MS): 0.006865 mol percent and 0.00639 mol percent and 0.005642 mol percent and 0.008281 mol percent
Amount of lipid species, mol percent in total phospholipid analysed [2, 5]: 0.008875 mol percent and 0.009786 mol percent and 0.00943 mol percent and 0.009646 mol percent
Amount of lipid species, mol percent in total phospholipid analysed [2, 6]: 0.006967 mol percent and 0.006454 mol percent and 0.007395 mol percent and 0.006903 mol percent
Amount of each lipid species normalized to internal standard, mol percent in total phospholipid analysed [2, 7]: 0.009464 mol percent and 0.008616 mol percent and 0.009301 mol percent and 0.008257 mol percent
Amount of each lipid species normalized to internal standard, mol percent in total phospholipid analysed [2, 8]: 0.006896 mol percent and 0.007974 mol percent and 0.005812 mol percent and 0.007684 mol percent
Amount of lipid species, mol percent in total phospholipid analysed [2, 9]: 0.005262 mol percent and 0.005101 mol percent and 0.005659 mol percent and 0.004823 mol percent

Reference: US10175256B2, “Compositions and methods utilizing lysophosphatidylcholine scaffolds” (National University Of Singapore, priority 2013, dated 2019)
